Assay results taken from BindingDB's records for doi:10.1016/j.bmc.2007.03.063 (Zhengzhou University, 2007).

biological target: Maltase-glucoamylase (Homo sapiens, UniProt O43451); assay: Inhibition of alpha-glucosidase
Sequence (O43451 whole entry): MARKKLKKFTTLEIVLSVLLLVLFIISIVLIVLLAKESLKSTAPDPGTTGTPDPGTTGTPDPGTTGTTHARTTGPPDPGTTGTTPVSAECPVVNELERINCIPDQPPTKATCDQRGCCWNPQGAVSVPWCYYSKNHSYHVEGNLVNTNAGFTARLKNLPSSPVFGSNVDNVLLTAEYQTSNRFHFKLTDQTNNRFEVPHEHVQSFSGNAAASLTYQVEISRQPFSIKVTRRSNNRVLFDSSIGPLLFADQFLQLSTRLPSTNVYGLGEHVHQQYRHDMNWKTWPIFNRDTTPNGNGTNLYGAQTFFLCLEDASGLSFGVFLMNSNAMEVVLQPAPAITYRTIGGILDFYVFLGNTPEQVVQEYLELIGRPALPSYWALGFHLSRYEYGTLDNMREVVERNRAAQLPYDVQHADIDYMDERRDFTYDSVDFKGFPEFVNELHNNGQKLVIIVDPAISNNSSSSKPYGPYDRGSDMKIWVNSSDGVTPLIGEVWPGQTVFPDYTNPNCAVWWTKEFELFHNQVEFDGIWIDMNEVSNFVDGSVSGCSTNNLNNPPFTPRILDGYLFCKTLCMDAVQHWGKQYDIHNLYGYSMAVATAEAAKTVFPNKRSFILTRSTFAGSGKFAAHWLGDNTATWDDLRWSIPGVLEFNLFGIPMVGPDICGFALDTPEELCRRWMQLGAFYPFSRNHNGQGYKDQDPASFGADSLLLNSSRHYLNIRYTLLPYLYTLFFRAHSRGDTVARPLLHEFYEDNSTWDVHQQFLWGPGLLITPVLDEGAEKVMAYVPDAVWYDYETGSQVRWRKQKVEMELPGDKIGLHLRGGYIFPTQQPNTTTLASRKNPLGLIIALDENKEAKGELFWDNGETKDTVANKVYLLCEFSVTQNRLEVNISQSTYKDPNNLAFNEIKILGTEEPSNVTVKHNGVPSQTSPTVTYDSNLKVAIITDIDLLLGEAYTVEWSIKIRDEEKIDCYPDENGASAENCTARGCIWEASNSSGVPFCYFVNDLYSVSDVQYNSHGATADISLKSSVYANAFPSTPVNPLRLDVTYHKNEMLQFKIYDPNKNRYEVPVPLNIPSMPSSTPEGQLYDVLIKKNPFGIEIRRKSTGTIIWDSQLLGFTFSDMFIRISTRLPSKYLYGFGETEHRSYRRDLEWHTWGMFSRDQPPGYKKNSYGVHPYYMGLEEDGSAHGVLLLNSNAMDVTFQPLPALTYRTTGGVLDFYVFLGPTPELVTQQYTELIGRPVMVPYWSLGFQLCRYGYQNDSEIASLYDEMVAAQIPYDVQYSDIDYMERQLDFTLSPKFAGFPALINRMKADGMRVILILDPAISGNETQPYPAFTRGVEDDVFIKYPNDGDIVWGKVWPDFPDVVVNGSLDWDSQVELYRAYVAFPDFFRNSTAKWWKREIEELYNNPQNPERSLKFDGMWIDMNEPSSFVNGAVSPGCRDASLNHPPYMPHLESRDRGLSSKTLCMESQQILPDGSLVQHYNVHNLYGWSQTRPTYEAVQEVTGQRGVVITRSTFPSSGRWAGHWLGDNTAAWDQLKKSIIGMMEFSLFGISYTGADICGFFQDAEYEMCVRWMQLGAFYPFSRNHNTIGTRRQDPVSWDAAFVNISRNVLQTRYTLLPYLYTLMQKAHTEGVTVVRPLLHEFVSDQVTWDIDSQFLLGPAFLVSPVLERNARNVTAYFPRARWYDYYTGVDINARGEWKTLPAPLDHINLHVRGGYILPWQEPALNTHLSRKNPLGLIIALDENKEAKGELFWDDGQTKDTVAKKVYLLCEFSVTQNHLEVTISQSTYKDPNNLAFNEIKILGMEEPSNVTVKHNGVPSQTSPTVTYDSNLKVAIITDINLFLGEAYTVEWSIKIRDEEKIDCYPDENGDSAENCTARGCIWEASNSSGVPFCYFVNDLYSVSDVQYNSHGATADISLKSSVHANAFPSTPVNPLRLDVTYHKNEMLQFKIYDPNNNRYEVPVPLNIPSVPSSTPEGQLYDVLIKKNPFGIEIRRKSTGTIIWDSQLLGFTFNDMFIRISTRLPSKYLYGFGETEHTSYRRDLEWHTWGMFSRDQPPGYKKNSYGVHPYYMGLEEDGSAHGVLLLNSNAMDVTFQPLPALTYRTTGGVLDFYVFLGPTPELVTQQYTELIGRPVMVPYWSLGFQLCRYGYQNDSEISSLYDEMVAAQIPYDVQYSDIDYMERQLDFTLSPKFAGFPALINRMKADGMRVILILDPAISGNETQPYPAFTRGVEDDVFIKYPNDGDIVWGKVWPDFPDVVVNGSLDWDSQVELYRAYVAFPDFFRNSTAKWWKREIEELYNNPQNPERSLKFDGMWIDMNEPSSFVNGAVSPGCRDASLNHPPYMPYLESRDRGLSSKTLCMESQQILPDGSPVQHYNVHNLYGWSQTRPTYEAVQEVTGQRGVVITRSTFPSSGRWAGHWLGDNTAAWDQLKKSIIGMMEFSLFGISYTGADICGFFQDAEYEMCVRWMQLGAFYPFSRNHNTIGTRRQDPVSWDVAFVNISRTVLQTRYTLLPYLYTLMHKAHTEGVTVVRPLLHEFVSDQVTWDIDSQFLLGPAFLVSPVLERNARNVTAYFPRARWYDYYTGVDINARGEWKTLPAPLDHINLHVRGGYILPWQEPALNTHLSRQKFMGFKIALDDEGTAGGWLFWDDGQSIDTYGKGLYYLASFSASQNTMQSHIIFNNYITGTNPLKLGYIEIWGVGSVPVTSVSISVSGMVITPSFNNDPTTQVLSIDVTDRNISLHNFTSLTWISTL

Structure (SMILES) | IC50
C=C1CC[C@@H]2[C@](C)(COC(=O)c3cccnc3)[C@H](OC(=O)c3cccnc3)CC[C@@]2(C)[C@@H]1/C=C/C1=CC(=C\C(C)=C\CCC/C=C/C)/OC1=O [14-deoxy-11,12-didehydro-3,19-dinicotinate-15-(2,8-dimethanyl-2,7-octanedieneylidene)-andrographolide] | 28 µM
C=C1CC[C@@H]2[C@](C)(COC(=O)c3cccnc3)[C@H](OC(=O)c3cccnc3)CC[C@@]2(C)[C@@H]1/C=C/C1=CC(=C/c2ccco2)/OC1=O [14-deoxy-11,12-didehydro-3,19-dinicotinate-15-(2-furanmethanylidene)-andrographolide] | 36 µM
C=C1CC[C@@H]2[C@](C)(COC(=O)c3cccnc3)[C@H](OC(=O)c3cccnc3)CC[C@@]2(C)[C@@H]1/C=C/C1=CC(=C\c2ccc(N(C)C)cc2)/OC1=O [14-deoxy-11,12-didehydro-3,19-dinicotinate-15-(p(-dimethylamino)benzylidene)-andrographolide] | 25 µM
C=C1CC[C@@H]2[C@](C)(COC(=O)c3cccnc3)[C@H](OC(=O)c3cccnc3)CC[C@@]2(C)[C@@H]1/C=C/C1=CC(=C\c2ccc(OC)cc2)/OC1=O [14-deoxy-11,12-didehydro-3,19-dinicotinate-15-p-methoxylbenzylidene andrographolide] | 11 µM
C=C1CC[C@@H]2[C@](C)(CO)[C@H](O)CC[C@@]2(C)[C@@H]1/C=C/C1=CC(=C/c2ccco2)/OC1=O [14-deoxy-11,12-didehydro-15-(-2-furanmethanylidene)-andrographolide] | 100 µM
C=C1CC[C@@H]2[C@](C)(CO)[C@H](O)CC[C@@]2(C)[C@@H]1/C=C/C1=CC(=C/c2cc(OC)c(OC)cc2OC)/OC1=O [14-deoxy-11,12-didehydro-15-trimethoxylbenzylideneandrographolide] | 84 µM
C=C1CC[C@@H]2[C@](C)(CO)[C@H](O)CC[C@@]2(C)[C@@H]1/C=C/C1=CC(=C/c2ccc(N(C)C)cc2)/OC1=O [14-deoxy-15-(p-(dimethanylamino)-benzylidene)-11,12-didehydroandrographolide] | 70 µM
C=C1CC[C@@H]2[C@](C)(CO)[C@H](O)CC[C@@]2(C)[C@@H]1/C=C/C1=CC(=C/c2ccc3c(c2)OCO3)/OC1=O [15-(benzo[1,3]dioxole-5-methanylidene)-14-deoxy-11,12-didehydroandrographolide] | 82 µM

Further lines, results first:

IC50 | Structure (SMILES)
14 µM | C=C1CC[C@@H]2[C@](C)(COC(=O)c3cccnc3)[C@H](OC(=O)c3cccnc3)CC[C@@]2(C)[C@@H]1/C=C/C1=CC(=C\c2cccc(Br)c2)/OC1=O [15-(m-bromoacylbenzylidene)-14-deoxy-11,12-didehydro-3,19-dinicotinateandrographolide]
6 µM | C=C1CC[C@@H]2[C@](C)(COC(=O)c3cccnc3)[C@H](OC(=O)c3cccnc3)CC[C@@]2(C)[C@@H]1/C=C/C1=CC(=C\c2ccc(Cl)cc2)/OC1=O [15-(p-chlorinebenzylidene)-14-deoxy-11,12-didehydro-3,19-dinicotinateandrographolide]
16 µM | C=C1CC[C@@H]2[C@](C)(COC(=O)c3cccnc3)[C@H](OC(=O)c3cccnc3)CC[C@@]2(C)[C@@H]1/C=C/C1=CC(=C\c2ccccc2)/OC1=O [15-benzylidene14-deoxy-11,12-didehydro-3,19-dinicotinateandrographolide]
58 µM | C=C1CC[C@@H]2[C@](C)(CO)[C@H](O)CC[C@@]2(C)[C@@H]1/C=C/C1=CC(=C/c2ccccc2)/OC1=O [15-benzylidene-14-deoxy-11,12-didehydroandrographolide]
